# Experimental data reported in patent US10400274B2, “Fluorogenic probes and their use in quantitative detection of target RNA sequences” (JAN BIOTECH, INC., priority 2016, dated 2019).
# Legend:
# [1] = tested on: synthetic HIV RNA targets; test: qLDR probe set testing against synthetic HIV RNA targets; settings: initial testing with synthetic HIV RNA targets
# Procedure: The qLDR reaction contained optimized probe concentrations at 10-100 pM and a total reaction volume of 50 μL. The qLDR reaction for each probe set was optimized against the commensurate synthetic HIV RNA targets using fluorescence microscopy and fluorescence emission in a 96-well format in a desktop fluorometer, with readings normalized to background.
# [2] = tested on: HIV RNA of ACH-2 cells; test: HIV qLDR on PMA-activated ACH-2 cells in A3.01 cells (latent vs. active); type: cell-based; settings: 10 ACH-2 cells in 10^6 A3.01 cells; PMA 1 μM for 0, 3, 8, 24 hr; FIG. 9
# Procedure: For cell line testing (FIG. 9), ACH-2 and A3.01 cells were grown in T-75 flasks and plated at 1 mL per well in a 24-well culture plate in RPMI medium. After the wells reached 60% confluency, cells were activated for 0, 3, 8, and 24 hr with PMA (phorbal 12-myristate 13-acetate) at 1 μM final concentration per well. The experiment was performed such that each activation time endpoint represented the same total growth time. The activated ACH-2 cells were harvested from each well and counted. After preservation and shipping in 90% FBS/10% DMSO at −80° C., the cell suspensions were recounted, diluted and added at 10 cells into 10^6 A3.01 cells activated for the matching time period. HIV qLDR, using probes SEQ ID NO: 9/SEQ ID NO: 10 for 2 kb tat-rev transcripts, SEQ ID NO: 1/SEQ ID NO: 2 for 9 kb transcripts, and SEQ ID NO: 1/SEQ ID NO: 2 and SEQ ID NO: 5/SEQ ID NO: 6 for 4 kb transcripts, was performed on the cells and fluorometric readings in a 96-well plate format were normalized to background. […] Thus, the ratio of cell-based tat-rev to 4 kb/9 kb HIV RNA levels may be a useful measure of latent to active cell number.
# [3] = tested on: HIV pol/protease region; test: HIV qLDR compared with HIV RT-qPCR on human peripheral blood samples; type: cell-based; settings: CD4+ T cells for qLDR, blood plasma for RT-qPCR; FIG. 11
# Procedure: For human sample testing comparison with HIV RT-qPCR (FIG. 11), blood plasma was used for RT-qPCR and CD4+ T cells were used for qLDR. RT-qPCR was performed using primers and probe to the HIV gag-pol region, as described in Livak et al., 1995, for best comparison with HIV qLDR with probes SEQ ID NO: 1/SEQ ID NO: 2 to the HIV pol/protease region. HIV RNA was isolated from blood plasma samples prior to RT-qPCR. An RT-qPCR standard was prepared by in vitro transcription of a synthetic HIV T7 plasmid, and RNA copy number was determined using a standard curve generated with the RT-qPCR standard.
# [4] = tested on: cellular HIV RNA; test: HIV qLDR on CD4-enriched PBMC lysates from HIV- and HIV+ participants; type: cell-based, human; settings: FIG. 10a-b; for detection of cellular HIV RNA in HIV+ HAART (latent) samples / detection of cellular HIV RNA in HIV- samples: CD4-enriched PBMC lysates, 20 mL blood; for detection between latent and HIV+ non-HAART (active) samples: including viremic participants and elite controllers
# Procedure: For human sample testing (FIG. 10a-b) by HIV qLDR, CD4-enriched PBMC from HIV− and HIV+ participants were tested by the HIV qLDR probes SEQ ID NO: 9/SEQ ID NO: 10 for 2 kb tat-rev transcripts and SEQ ID NO: 5/SEQ ID NO: 6 for 9 kb and 4 kb transcripts. Lysates were tested from five individuals/class. Tests were performed in triplicate with 20 mL blood.
substance,measurement,setting,value
"SEQ ID NO: 1/SEQ ID NO: 2: fluorogenic probe pair SEQ ID NO: 1 (Ald-1) and 2 (Ind), HIV-1 pol/protease, detects full length 9 kb RNA (chain 1 CCTGTATCTAATAGAGC; chain 2 TCTAATACTGTATCATCT; fluorogenic labels; Latent HIV-1 qLDR Oligonucleotide Probe; (1)..(1) Fluorogenic probe moiety attachment position on probe sequence; (18)..(18) Fluorogenic probe moiety attachment position on probe sequence)",detection efficiency,[1],comparable detection efficiency
same,change of fluorescence level through activation time course,[2],marked increase
same,correlation of HIV qLDR results with HIV RT-PCR viremia results,[3],closely correlated
"SEQ ID NO: 9/SEQ ID NO: 10: fluorogenic PNA probe pair SEQ ID NO: 9 (Ald-1) and 10 (Ind), tat-rev, detects spliced 2 kb HIV-1 RNA (chain 1 CTTTG; chain 2 TGGGT; PNA; fluorogenic labels; Latent HIV-1 qLDR Oligonucleotide Probe; (1)..(1) Fluorogenic probe moiety attachment position on probe sequence; (1)..(5) Peptide nucleic acid 5′ Ald-CTTTG-DMLys-DMLys- CONH2; (1)..(5) Peptide nucleic acid 3′ Ind-TGGGT-DMLys-DMLys- CONH2; (5)..(5) Fluorogenic probe moiety attachment position on probe sequence)",detection efficiency,[1],comparable detection efficiency
same,change of fluorescence level through activation time course,[2],relatively little increase
same,detection of cellular HIV RNA in HIV+ HAART (latent) samples,[4],successfully detected
same,detection of cellular HIV RNA in HIV- samples,[4],not in HIV—samples
same,detection between latent and HIV+ non-HAART (active) samples,[4],differential detection
"SEQ ID NO: 5/SEQ ID NO: 6: fluorogenic probe pair SEQ ID NO: 5 (Ald-2) and 6 (Ind), HIV-1 gp160/41, detects 4 kb spliced and 9 kb RNA (chain 1 ATAGTGCTTCCTGCT; chain 2 GTCATTGAGGCTGCG; fluorogenic labels; Latent HIV-1 qLDR Oligonucleotide Probe; (1)..(1) Fluorogenic probe moiety attachment position on probe sequence; (15)..(15) Fluorogenic probe moiety attachment position on probe sequence)",detection efficiency,[1],comparable detection efficiency
same,change of fluorescence level through activation time course,[2],marked increase
same,detection of cellular HIV RNA in HIV+ HAART (latent) samples,[4],successfully detected
same,detection of cellular HIV RNA in HIV- samples,[4],not in HIV—samples
same,detection between latent and HIV+ non-HAART (active) samples,[4],differential detection
